Results taken from ChEMBL document CHEMBL1143342, “Death receptor 5 targeting activity-guided isolation of isoflavones from Millettia brandisiana and Ardisia colorata and evaluation of ability to induce TRAIL-mediated apoptosis” (2009).
The source made the active and inactive calls. The rule behind the calls is not given here.

Key:
DLD-1 = assay: Induction of DR5 promoter activity in SacI gene expressing human DLD1 cells at 17.5 uM after 24 hrs by luminescence assay; assay type: functional
AGS [1] = assay: Induction of apoptosis in TRAIL-resistant human AGS cells assessed as late apoptotic cells at 40 uM after 24 hrs using annexin-V-FITC/propidium iodide staining by flow cytometry; assay type: functional
AGS [2] = assay: Induction of apoptosis in TRAIL-resistant human AGS cells assessed as early apoptotic cells at 40 uM after 24 hrs using annexin-V-FITC/propidium iodide staining by flow cytometry; assay type: functional
AGS [3] = assay: Induction of apoptosis in TRAIL-resistant human AGS cells assessed as late apoptotic cells at 50 uM after 24 hrs using annexin-V-FITC/propidium iodide staining by flow cytometry; assay type: functional
AGS [4] = assay: Induction of apoptosis in TRAIL-resistant human AGS cells assessed as early apoptotic cells at 50 uM after 24 hrs using annexin-V-FITC/propidium iodide staining by flow cytometry; assay type: functional
AGS [5] = assay: Induction of apoptosis in TRAIL-resistant human AGS cells assessed as late apoptotic cells at 60 uM after 24 hrs using annexin-V-FITC/propidium iodide staining by flow cytometry; assay type: functional
AGS [6] = assay: Induction of apoptosis in TRAIL-resistant human AGS cells assessed as early apoptotic cells at 60 uM after 24 hrs using annexin-V-FITC/propidium iodide staining by flow cytometry; assay type: functional
AGS [7] = assay: Sensitization of TRAIL-induced apoptosis in TRAIL-resistant human AGS cells assessed as late apoptotic cells at 40 uM after 24 hrs using annexin-V-FITC/propidium iodide staining by flow cytometry; assay type: functional
AGS [8] = assay: Sensitization of TRAIL-induced apoptosis in TRAIL-resistant human AGS cells assessed as early apoptotic cells at 40 uM after 24 hrs using annexin-V-FITC/propidium iodide staining by flow cytometry; assay type: functional
AGS [9] = assay: Sensitization of TRAIL-induced apoptosis in TRAIL-resistant human AGS cells assessed as late apoptotic cells at 50 uM after 24 hrs using annexin-V-FITC/propidium iodide staining by flow cytometry; assay type: functional
AGS [10] = assay: Sensitization of TRAIL-induced apoptosis in TRAIL-resistant human AGS cells assessed as early apoptotic cells at 50 uM after 24 hrs using annexin-V-FITC/propidium iodide staining by flow cytometry; assay type: functional
AGS [11] = assay: Sensitization of TRAIL-induced apoptosis in TRAIL-resistant human AGS cells assessed as late apoptotic cells at 60 uM after 24 hrs using annexin-V-FITC/propidium iodide staining assay; assay type: functional
AGS [12] = assay: Sensitization of TRAIL-induced apoptosis in TRAIL-resistant human AGS cells assessed as early apoptotic cells at 60 uM after 24 hrs using annexin-V-FITC/propidium iodide staining by flow cytometry; assay type: functional
AGS [13] = assay: Sensitization of TRAIL-induced apoptosis in TRAIL-resistant human AGS cells assessed as accumulation at sub-G1 phase at 60 uM after 24 hrs using annexin-V-FITC/propidium iodide staining by flow cytometry in presence of DR5/Fc chimeric protein; assay type: functional, cell-based
AGS [14] = assay: Induction of TRAIL-induced apoptosis in TRAIL-resistant human AGS cells assessed as increase in caspase 8 activity after 12 hrs by luminescence assay; assay type: functional, cell-based
AGS [15] = assay: Induction of TRAIL-induced apoptosis in TRAIL-resistant human AGS cells assessed as increase in caspase 3/7 activity after 24 hrs by luminescence assay; assay type: functional, cell-based
AGS [16] = assay: Induction of DR5 mRNA expression in TRAIL-resistant human AGS cells by RT-PCR; assay type: functional, cell-based
AGS [17] = assay: Induction of DR5 protein expression in TRAIL-resistant human AGS cells after 24 hrs by Western blot analysis; assay type: functional, cell-based
AGS [18] = assay: Sensitization of TRAIL-induced apoptosis in TRAIL-resistant human AGS cells assessed as increase in DR5 expression; assay type: functional, cell-based

## COc1ccc(-c2coc3cc(O)ccc3c2=O)c(O)c1 [XENOGNOSIN B]
DLD-1
  Activity: 2.5

## COc1cc(-c2coc3c4c(cc(O)c3c2=O)OC(C)(C)C=C4)c(OC)cc1O
AGS [1]
  Activity: 5.6%
AGS [2]
  Activity: 9.6%
AGS [3]
  Activity: 3.9%
AGS [4]
  Activity: 15.2%
AGS [5]
  Activity: 6.9%
AGS [6]
  Activity: 17.4%
AGS [7]
  Activity: 12.9%
AGS [8]
  Activity: 12.1%
AGS [9]
  Activity: 19.5%
AGS [10]
  Activity: 16.3%
AGS [11]
  Activity: 44.1%
AGS [12]
  Activity: 23.4%
AGS [13]
  Activity: inactive
AGS [14]
  Activity: Dose-dependent effect
AGS [15]
  Activity: Dose-dependent effect
AGS [16]
  Activity: Dose-dependent effect
AGS [17]
  Activity: Dose-dependent effect
AGS [18]
  Activity: Active
